Test results reported in patent US9795140B2, “Molecules having pesticidal utility, and intermediates, compositions, and processes, related thereto” (priority 2015, dated 2017).

Tests used:
Format in all cases: in vivo
[1] = test system: Beet Armyworm (Spodoptera exigua, LAPHEG); assay: Bioassay on Beet Armyworm (BAW), 128-well diet tray assay; conditions: 168 h, 50 μg/cm^2 on artificial diet, second instar larvae, 25° C., five to seven days, average of eight wells, read-out: BAW % Control (or Mortality) rating
Description: (§1) Certain molecules disclosed in this document were tested against BAW and CL using procedures described in the following examples. In the reporting of the results, the “BAW & CL Rating Table” was used (See Table Section).
Bioassays on BAW were conducted using a 128-well diet tray assay. One to five second instar BAW larvae were placed in each well (3 mL) of the diet tray that had been previously filled with approximately 1.5 mL of artificial diet to which 50 μg/cm^2 of the test molecule (dissolved in 50 μL of 90:10 acetone-water mixture) had been applied (to each of eight wells) and then allowed to dry. Trays were covered with a clear self-adhesive cover, vented to allow gas exchange, and held at 25° C., 14:10 light-dark for five to seven days. Percent mortality was recorded for the larvae in each well; activity in the eight wells was then averaged. The results are indicated in the table entitled “Table ABC: Biological Results” (See Table Section).

[2] = test system: Cabbage Looper (Trichoplusia ni, TRIPNI); assay: Bioassay on Cabbage Looper (CL), 128-well diet tray assay; conditions: 168 h, 50 μg/cm^2 on artificial diet, second instar larvae, 25° C., five to seven days, average of eight wells, read-out: CL % Control (or Mortality) rating
Description: as §1
Bioassays on CL were conducted using a 128-well diet tray assay, one to five second instar CL larvae were placed in each well (3 mL) of the diet tray that had been previously filled with 1 mL of artificial diet to which 50 μg/cm^2 of the test molecule (dissolved in 50 μL of 90:10 acetone-water mixture) had been applied (to each of eight wells) and then allowed to dry. Trays were covered with a clear self-adhesive cover, vented to allow gas exchange, and held at 25° C., 14:10 light-dark for five to seven days. Percent mortality was recorded for the larvae in each well; activity in the eight wells was then averaged. The results are indicated in the table entitled “Table ABC: Biological Results” (See Table Section).

[3] = test system: Yellow Fever Mosquito (Aedes aegypti, AEDSAE); assay: Bioassay on Yellow Fever Mosquito (YFM) larvae, 96-well plate; conditions: about 1 day-old larvae, room temperature, 3 days, scored on mortality
Description: Certain molecules disclosed in this document were tested against YFM using procedures described in the following paragraph. In the reporting of the results, the “GPA & YFM Rating Table” was used (See Table Section).
Master plates containing 400 μg of a molecule dissolved in 100 μL of dimethyl sulfoxide (DMSO) (equivalent to a 4000 ppm solution) are used. A master plate of assembled molecules contains 15 μL per well. To this plate, 135 μL of a 90:10 water/acetone mixture is added to each well. A robot is programmed to dispense 15 μL aspirations from the master plate into an empty 96-well shallow plate (“daughter” plate). There are 6 reps (“daughter” plates) created per master. The created “daughter” plates are then immediately infested with YFM larvae.
The day before plates are to be treated, mosquito eggs are placed in Millipore water containing liver powder to begin hatching (4 g. into 400 mL). After the “daughter” plates are created using the robot, they are infested with 220 μL of the liver powder/larval mosquito mixture (about 1 day-old larvae). After plates are infested with mosquito larvae, a non-evaporative lid is used to cover the plate to reduce drying. Plates are held at room temperature for 3 days prior to grading. After 3 days, each well is observed and scored based on mortality. The results are indicated in the table entitled “Table ABC: Biological Results” (See Table Section).

Structure (SMILES)	mortality at 50 µg/cm2 [1]	mortality at 50 µg/cm2 [2]	YFM % Control (or Mortality) rating [3]
CN(C)CCCCNC(=O)c1cc(NC(=O)[C@H]2[C@H](c3cc(Cl)cc(Cl)c3)C2(Cl)Cl)ccc1Cl (relative stereo) [F50, trans-2-Chloro-5-(2,2-dichloro-3-(3,5-dichlorophenyl)cyclopropane-1-carboxamido)-N-(4-(dimethylamino)butyl)benzamide]	0%	50 to 100%	
O=C(NCCC1CC1)c1cc(NC(=O)C2C(c3cc(Cl)c(Cl)c(Cl)c3)C2(Cl)Cl)ccc1Cl (stereo not drawn) [F26, trans-N-2-Chloro-N-(2-cyclopropylethyl)-5-(2,2-dichloro-3-(3,4,5-trichlorophenyl)cyclopropane-1-carboxamido)benzamide]	50 to 100%	50 to 100%	A (80-100)
O=C(NCC(F)(F)F)c1cc(NC(=O)[C@H]2[C@H](c3ccc(C(F)(F)F)c(Cl)c3)C2(Cl)Cl)ccc1Cl (relative stereo) [F116, 2-Chloro-5-(trans-2,2-dichloro-3-(3-chloro-4-(trifluoromethyl)phenyl)cyclopropane-1-carboxamido)-N-(2,2,2-trifluoroethyl)benzamide]	50 to 100%	50 to 100%	A (80-100)
O=C(NCC(F)(F)F)c1cc(NC(=O)[C@H]2[C@H](c3cccc(C(F)F)c3)C2(Cl)Cl)ccc1Cl (relative stereo) [F134, 2-Chloro-5-(trans-2,2-dichloro-3-(3-(difluoromethyl)phenyl)cyclopropane-1-carboxamido)-N-(2,2,2-trifluoroethyl)benzamide]	50 to 100%	50 to 100%	A (80-100)
O=C(NCC(F)(F)F)c1cc(NC(=O)[C@H]2[C@H](c3cc(F)cc(F)c3)C2(Cl)Cl)ccc1Cl (relative stereo) [F121, 2-Chloro-5-(trans-2,2-dichloro-3-(3,5-difluorophenyl)cyclopropane-1-carboxamido)-N-(2,2,2-trifluoroethyl)benzamide]	50 to 100%	50 to 100%	A (80-100)
CCCNC(=O)c1cc(NC(=O)[C@H]2[C@H](c3cc(Cl)cc(Cl)c3)C2(Cl)Cl)cc(Cl)c1Cl (relative stereo) [F95, trans-2,3-Dichloro-5-(2,2-dichloro-3-(3,5-dichlorophenyl)cyclopropane-1-carboxamido)-N-propylbenzamide]	50 to 100%	50 to 100%	A (80-100)
O=C(NCCC1CC1)c1cc(NC(=O)C2C(c3cc(Cl)cc(Cl)c3)C2(Cl)Cl)ccc1Cl (stereo not drawn) [F24, trans-N-2-Chloro-N-(2-cyclopropylethyl)-5-(2,2-dichloro-3-(3,5-dichlorophenyl)cyclopropane-1-carboxamido)benzamide]	50 to 100%	50 to 100%	A (80-100)
O=C(NCC(F)(F)F)c1cc(NC(=O)[C@H]2[C@H](c3cc(F)cc(C(F)(F)F)c3)C2(Cl)Cl)ccc1Cl (relative stereo) [F122, 2-Chloro-5-(trans-2,2-dichloro-3-(3-fluoro-5-(trifluoromethyl)phenyl)cyclopropane-1-carboxamido)-N-(2,2,2-trifluoroethyl)benzamide]	50 to 100%	50 to 100%	A (80-100)
O=C(NCC(F)(F)F)c1cc(NC(=O)C2C(c3cc(F)c(F)c(F)c3)C2(Cl)Cl)ccc1Cl (stereo not drawn) [F127, 2-Chloro-5-cis-(2,2-dichloro-3-(3,4,5-trifluorophenyl)cyclopropane-1-carboxamido)-N-(2,2,2-trifluoroethyl)benzamide]			A (80-100)
O=C(NCC(F)(F)F)c1cc(NC(=O)[C@H]2[C@H](c3cc(Cl)cc(Cl)c3)C2(Cl)Cl)cc(Cl)c1Cl (relative stereo) [F93, trans-2,3-Dichloro-5-(2,2-dichloro-3-(3,5-dichlorophenyl)cyclopropane-1-carboxamido)-N-(2,2,2-trifluoroethyl)benzamide]	50 to 100%	50 to 100%	
O=C(CNC(=O)c1cc(NC(=O)[C@H]2[C@H](c3cc(Cl)cc(Cl)c3)C2(Cl)Cl)ccc1Cl)NCC(F)(F)F (relative stereo) [F5, trans-2-Chloro-5-(2,2-dichloro-3-(3,5-dichlorophenyl)cyclopropane-1-carboxamido)-N-(2-oxo-2-((2,2,2-trifluoroethyl)amino)ethyl)benzamide]	50 to 100%	50 to 100%	
C#CCN(C)C(=O)c1cc(NC(=O)[C@H]2[C@H](c3cc(Cl)cc(Cl)c3)C2(Cl)Cl)ccc1Cl (relative stereo) [F65, trans-2-Chloro-5-(2,2-dichloro-3-(3,5-dichlorophenyl)cyclopropane-1-carboxamido)-N-methyl-N-(prop-2-yn-1-yl)benzamide]	50 to 100%	50 to 100%	
C[S+]([O-])CCNC(=O)c1cc(NC(=O)[C@H]2[C@H](c3cc(Cl)cc(Cl)c3)C2(Cl)Cl)ccc1Cl (relative stereo) [F74, trans-2-chloro-5-(2,2-dichloro-3-(3,5-dichlorophenyl)cyclopropane-1-carboxamido)-N-(2-(methylsulfinyl)ethyl)benzamide]	50 to 100%	50 to 100%	
CN(CC#N)C(=O)c1cc(NC(=O)[C@H]2[C@H](c3cc(Cl)cc(Cl)c3)C2(Cl)Cl)ccc1Cl (relative stereo) [F66, trans-2-Chloro-N-(cyanomethyl)-5-(2,2-dichloro-3-(3,5-dichlorophenyl)cyclopropane-1-carboxamido)-N-methylbenzamide]	50 to 100%	50 to 100%	
C=CCONC(=O)c1cc(NC(=O)[C@H]2[C@H](c3cc(Cl)cc(Cl)c3)C2(Cl)Cl)ccc1Cl (relative stereo) [F10, trans-N-(Allyloxy)-2-chloro-5-(2,2-dichloro-3-(3,5-dichlorophenyl)cyclopropane-1-carboxamido)benzamide]	50 to 100%	50 to 100%	
O=C(NCc1ccccn1)c1cc(NC(=O)[C@H]2[C@H](c3cc(Cl)c(Cl)c(Cl)c3)C2(Cl)Cl)ccc1Cl (relative stereo) [F9, trans-2-Chloro-5-(2,2-dichloro-3-(3,4,5-trichlorophenyl)cyclopropane-1-carboxamido)-N-(pyridin-2-ylmethyl)benzamide]	50 to 100%	50 to 100%	
C=CCONC(=O)c1cc(NC(=O)[C@H]2[C@H](c3cc(Cl)c(Cl)c(Cl)c3)C2(Cl)Cl)ccc1Cl (relative stereo) [F11, trans-N-(Allyloxy)-2-chloro-5-(2,2-dichloro-3-(3,4,5-trichlorophenyl)cyclopropane-1-carboxamido)benzamide]	50 to 100%	50 to 100%	
O=C(NCc1ccccn1)c1cc(NC(=O)[C@H]2[C@H](c3cc(Cl)cc(Cl)c3)C2(Cl)Cl)ccc1Cl (relative stereo) [F8, trans-2-Chloro-5-(2,2-dichloro-3-(3,5-dichlorophenyl)cyclopropane-1-carboxamido)-N-(pyridin-2-ylmethyl)benzamide]	50 to 100%	50 to 100%	
